Test results published in the OligoGym collection.
HELM strings list units from the 5' end as sugar, base in round brackets, then linkage (d deoxyribose, r ribose, m 2'-O-methyl, p phosphodiester). Strings are as the collection lists them; they lack the last nucleoside at the 3' end of the tested compound. [moe] = 2'-O-(2-methoxyethyl) (MOE); [sp] = phosphorothioate linkage; [m5C] = 5-methylcytosine

Molecular target: LRRK2
Assay: mouse, dose not given
Conditions: ASO

Row | Substance | 3 h FOB score [score 0-7]
1 | RNA1{[moe]([m5C])[sp].[moe](A)p.[moe](T)[sp].[moe](T)[sp].[moe]([m5C])[sp].d(G)[sp].d(G)[sp].d(T)[sp].d(T)[sp].d(A)[sp].d(T)[sp].d(A)[sp].d(A)[sp].d(G)[sp].d(G)[sp].[moe]([m5C])[sp].[moe](A)p.[moe]([m5C])[sp].[moe](A)}$$$$ (last 3' nucleoside missing) | 7
2 | RNA1{[moe](G)[sp].[moe]([m5C])p.[moe](T)p.[moe](G)p.[moe](T)[sp].d(A)[sp].d(A)[sp].d(T)[sp].d(A)[sp].d([m5C])[sp].d(G)[sp].d(G)[sp].d([m5C])[sp].d(A)[sp].d(T)[sp].[moe]([m5C])p.[moe](T)p.[moe]([m5C])[sp].[moe](G)}$$$$ (last 3' nucleoside missing) | 6
3 | RNA1{[moe](T)[sp].[moe]([m5C])p.[moe](T)p.[moe](T)p.[moe]([m5C])[sp].d(A)[sp].d(G)[sp].d(T)[sp].d(T)[sp].d([m5C])[sp].d([m5C])[sp].d(T)[sp].d(T)[sp].d([m5C])[sp].d(A)[sp].[moe](G)p.[moe](T)p.[moe]([m5C])[sp].[moe](T)}$$$$ (last 3' nucleoside missing) | 3
4 | RNA1{[moe](T)[sp].[moe]([m5C])p.[moe](A)p.[moe]([m5C])p.[moe]([m5C])[sp].d(A)[sp].d([m5C])[sp].d(A)[sp].d(A)[sp].d(A)[sp].d([m5C])[sp].d(T)[sp].d([m5C])[sp].d(A)[sp].d(T)[sp].[moe](G)p.[moe](G)p.[moe](A)[sp].[moe]([m5C])}$$$$ (last 3' nucleoside missing) | 3
5 | RNA1{[moe](G)[sp].[moe](A)p.[moe](G)[sp].[moe](T)[sp].[moe](G)[sp].d([m5C])[sp].d(A)[sp].d(T)[sp].d(G)[sp].d(G)[sp].d([m5C])[sp].d(A)[sp].d(T)[sp].d([m5C])[sp].d(A)[sp].[moe](A)[sp].[moe](A)p.[moe](A)[sp].[moe](A)}$$$$ (last 3' nucleoside missing) | 2
6 | RNA1{[moe]([m5C])[sp].[moe](T)p.[moe](T)[sp].[moe]([m5C])[sp].[moe](A)[sp].d(G)[sp].d(T)[sp].d(T)[sp].d([m5C])[sp].d([m5C])[sp].d(T)[sp].d(T)[sp].d([m5C])[sp].d(A)[sp].d(G)[sp].[moe](T)[sp].[moe]([m5C])p.[moe](T)[sp].[moe]([m5C])}$$$$ (last 3' nucleoside missing) | 6
7 | RNA1{[moe](T)[sp].[moe](G)p.[moe]([m5C])p.[moe](T)p.[moe](T)[sp].d(T)[sp].d([m5C])[sp].d(A)[sp].d(T)[sp].d(A)[sp].d(G)[sp].d([m5C])[sp].d(T)[sp].d(T)[sp].d([m5C])[sp].[moe]([m5C])p.[moe](A)p.[moe]([m5C])[sp].[moe]([m5C])}$$$$ (last 3' nucleoside missing) | 0
8 | RNA1{[moe](T)[sp].[moe](T)p.[moe]([m5C])p.[moe](A)p.[moe](T)[sp].d(T)[sp].d([m5C])[sp].d(G)[sp].d(G)[sp].d(T)[sp].d(T)[sp].d(A)[sp].d(T)[sp].d(A)[sp].d(A)[sp].[moe](G)p.[moe](G)p.[moe]([m5C])[sp].[moe](A)}$$$$ (last 3' nucleoside missing) | 4
9 | RNA1{[moe](A)[sp].[moe](A)p.[moe](G)[sp].[moe](T)[sp].[moe]([m5C])[sp].d([m5C])[sp].d(A)[sp].d(A)[sp].d(A)[sp].d(T)[sp].d(G)[sp].d(T)[sp].d(G)[sp].d(T)[sp].d([m5C])[sp].[moe](A)[sp].[moe](A)p.[moe](A)[sp].[moe]([m5C])}$$$$ (last 3' nucleoside missing) | 5
10 | RNA1{[moe]([m5C])[sp].[moe]([m5C])p.[moe](T)[sp].[moe](G)[sp].[moe](A)[sp].d([m5C])[sp].d(A)[sp].d(T)[sp].d(T)[sp].d(G)[sp].d([m5C])[sp].d([m5C])[sp].d(A)[sp].d([m5C])[sp].d(T)[sp].[moe]([m5C])[sp].[moe](A)p.[moe](T)[sp].[moe](G)}$$$$ (last 3' nucleoside missing) | 4
11 | RNA1{[moe](G)[sp].[moe](T)p.[moe](T)[sp].[moe](A)[sp].[moe](A)[sp].d([m5C])[sp].d(G)[sp].d([m5C])[sp].d(A)[sp].d([m5C])[sp].d(T)[sp].d(T)[sp].d(A)[sp].d(A)[sp].d([m5C])[sp].[moe](A)[sp].[moe](A)p.[moe](T)[sp].[moe](A)}$$$$ (last 3' nucleoside missing) | 2
12 | RNA1{[moe](A)[sp].[moe](G)[sp].[moe](T)[sp].[moe](T)[sp].[moe]([m5C])[sp].d([m5C])[sp].d(T)[sp].d(T)[sp].d([m5C])[sp].d(A)[sp].d(G)[sp].d(T)[sp].d([m5C])[sp].d(T)[sp].d([m5C])[sp].[moe](A)[sp].[moe](A)p.[moe](G)[sp].[moe](G)}$$$$ (last 3' nucleoside missing) | 7
13 | RNA1{[moe](A)[sp].[moe](T)p.[moe](T)[sp].[moe](G)[sp].[moe]([m5C])[sp].d([m5C])[sp].d(A)[sp].d([m5C])[sp].d(T)[sp].d([m5C])[sp].d(A)[sp].d(T)[sp].d(G)[sp].d(A)[sp].d(G)[sp].[moe](G)[sp].[moe](A)p.[moe]([m5C])[sp].[moe](T)}$$$$ (last 3' nucleoside missing) | 4
14 | RNA1{[moe](A)[sp].[moe](T)p.[moe](G)p.[moe]([m5C])p.[moe](T)[sp].d(T)[sp].d(T)[sp].d([m5C])[sp].d(A)[sp].d(T)[sp].d(A)[sp].d(G)[sp].d([m5C])[sp].d(T)[sp].d(T)[sp].[moe]([m5C])p.[moe]([m5C])p.[moe](A)[sp].[moe]([m5C])}$$$$ (last 3' nucleoside missing) | 0
15 | RNA1{[moe](G)[sp].[moe]([m5C])p.[moe]([m5C])[sp].[moe](A)[sp].[moe]([m5C])[sp].d(T)[sp].d(T)[sp].d(T)[sp].d([m5C])[sp].d(A)[sp].d(G)[sp].d([m5C])[sp].d([m5C])[sp].d(A)[sp].d([m5C])[sp].[moe](T)[sp].[moe](T)p.[moe]([m5C])[sp].[moe](A)}$$$$ (last 3' nucleoside missing) | 7
16 | RNA1{[moe](T)[sp].[moe](T)p.[moe](T)[sp].[moe]([m5C])[sp].[moe](A)[sp].d(T)[sp].d(T)[sp].d([m5C])[sp].d(G)[sp].d(G)[sp].d(T)[sp].d(T)[sp].d(A)[sp].d(T)[sp].d(A)[sp].[moe](A)[sp].[moe](G)p.[moe](G)[sp].[moe]([m5C])}$$$$ (last 3' nucleoside missing) | 7
17 | RNA1{[moe](T)[sp].[moe](G)p.[moe]([m5C])p.[moe](T)p.[moe]([m5C])[sp].d(T)[sp].d([m5C])[sp].d(T)[sp].d(T)[sp].d(T)[sp].d([m5C])[sp].d(T)[sp].d([m5C])[sp].d(A)[sp].d([m5C])[sp].[moe](A)p.[moe](T)p.[moe](A)[sp].[moe]([m5C])}$$$$ (last 3' nucleoside missing) | 0
18 | RNA1{[moe](G)[sp].[moe](T)p.[moe](G)p.[moe](A)p.[moe](A)[sp].d(G)[sp].d([m5C])[sp].d(A)[sp].d([m5C])[sp].d(T)[sp].d(G)[sp].d(A)[sp].d(A)[sp].d(T)[sp].d([m5C])[sp].[moe]([m5C])p.[moe](A)p.[moe](T)[sp].[moe](A)}$$$$ (last 3' nucleoside missing) | 6
19 | RNA1{[moe](G)[sp].[moe](A)p.[moe](A)[sp].[moe]([m5C])[sp].[moe](T)[sp].d(T)[sp].d(T)[sp].d(A)[sp].d(T)[sp].d(A)[sp].d(T)[sp].d(A)[sp].d(T)[sp].d(A)[sp].d(G)[sp].[moe](T)[sp].[moe](T)p.[moe](A)[sp].[moe](T)}$$$$ (last 3' nucleoside missing) | 2
20 | RNA1{[moe](G)[sp].[moe]([m5C])p.[moe](A)[sp].[moe](A)[sp].[moe](G)[sp].d(T)[sp].d([m5C])[sp].d([m5C])[sp].d(A)[sp].d(A)[sp].d(A)[sp].d(T)[sp].d(G)[sp].d(T)[sp].d(G)[sp].[moe](T)[sp].[moe]([m5C])p.[moe](A)[sp].[moe](A)}$$$$ (last 3' nucleoside missing) | 6
21 | RNA1{[moe](G)[sp].[moe](T)p.[moe](A)p.[moe]([m5C])p.[moe]([m5C])[sp].d([m5C])[sp].d(T)[sp].d(T)[sp].d(T)[sp].d([m5C])[sp].d([m5C])[sp].d(A)[sp].d(T)[sp].d(G)[sp].d(T)[sp].[moe](G)p.[moe](A)p.[moe](A)[sp].[moe]([m5C])}$$$$ (last 3' nucleoside missing) | 1
22 | RNA1{[moe](T)[sp].[moe](G)p.[moe]([m5C])p.[moe](T)p.[moe](G)[sp].d([m5C])[sp].d(T)[sp].d([m5C])[sp].d(A)[sp].d(T)[sp].d(A)[sp].d(T)[sp].d([m5C])[sp].d(T)[sp].d(A)[sp].[moe](A)p.[moe](A)p.[moe](G)[sp].[moe](A)}$$$$ (last 3' nucleoside missing) | 0
23 | RNA1{[moe](G)[sp].[moe]([m5C])p.[moe](T)p.[moe](G)p.[moe]([m5C])[sp].d(T)[sp].d([m5C])[sp].d(A)[sp].d(T)[sp].d(A)[sp].d(T)[sp].d([m5C])[sp].d(T)[sp].d(A)[sp].d(A)[sp].[moe](A)p.[moe](G)p.[moe](A)[sp].[moe]([m5C])}$$$$ (last 3' nucleoside missing) | 0
24 | RNA1{[moe](G)[sp].[moe]([m5C])p.[moe](T)p.[moe](T)p.[moe](T)[sp].d([m5C])[sp].d(A)[sp].d(T)[sp].d(A)[sp].d(G)[sp].d([m5C])[sp].d(T)[sp].d(T)[sp].d([m5C])[sp].d([m5C])[sp].[moe](A)p.[moe]([m5C])p.[moe]([m5C])[sp].[moe](A)}$$$$ (last 3' nucleoside missing) | 0
25 | RNA1{[moe](T)[sp].[moe]([m5C])p.[moe](A)[sp].[moe](T)[sp].[moe](T)[sp].d([m5C])[sp].d(G)[sp].d(G)[sp].d(T)[sp].d(T)[sp].d(A)[sp].d(T)[sp].d(A)[sp].d(A)[sp].d(G)[sp].[moe](G)[sp].[moe]([m5C])p.[moe](A)[sp].[moe]([m5C])}$$$$ (last 3' nucleoside missing) | 7
